Measurements from patent EP4782440A9, “PSMA COMPOUND, AND PHARMACEUTICAL COMPOSITION CONTAINING SAME AND USE THEREOF” (VITSGEN THERAPEUTICS INC., priority 2023, dated 2025).

System: LnCaP cells
Assay: LnCaP cell uptake and internalization
Assay type: cell-based
Conditions: Table 4, 177Lu-labelled, 37 °C, 45 min
Excerpt: Table 4. Conditions and results of LnCaP cell uptake
wherein [formula] Table 5. Detailed results of LnCaP cell uptake

O=C(O)CC[C@H](NC(=O)N[C@@H](CCCCNC(=O)[C@H](Cc1ccc2ccccc2c1)NC(=O)[C@H]1CC[C@H](CNC(=O)CN2CCN(CC(=O)O)CCN(CC(=O)O)CCN(CC(=O)O)CC2)CC1)C(=O)O)C(=O)O [VWT001500, PSMA-617]
Cellular uptake results, internalization rate%: 9.57% | Cellular uptake results, uptake rate%: 1.01%
